From patent US10059688B2, “Protein tyrosine kinase modulators and methods of use” (BETTA PHARMACEUTICALS CO., LTD., priority 2013, dated 2018)

How the values were obtained:
EGFR (h) = EGFR (h) (Homo sapiens (Human), UniProt P00533); experiment: Kinase assay, single dose inhibition (Millipore, 33P-ATP filter binding); format: biochemical; details: 0.1 μM test compound, 10 μM ATP; remaining activity relative to DMSO control = 100%
EGFR (T790M) (h) = EGFR (T790M) (h) (Homo sapiens (Human), UniProt P00533, T790M); experiment: as above; format: biochemical; details: 0.1 μM test compound, 10 μM ATP; remaining activity relative to DMSO control = 100%
Protocol: (§1) Assay conditions included 10 μM ATP and 100 nM test compounds.
(§2) All reactions are initiated by the addition of the MgATP mix. After incubation for 40 minutes at room temperature, the reaction is stopped by the addition of 3% phosphoric acid solution. 10 μL of the reaction is then spotted onto a P30 filtermat and washed three times for 5 minutes in 75 mM phosphoric acid and once in methanol prior to drying and scintillation counting. This assay is performed by Millipore. The experiment is carried out in duplicate. The value for the control sample (DMSO) was set to 100%, and the values for the compound-treated samples were expressed as activity relative to the control sample.

EGFR (L858R) (h) = EGFR (L858R) (h) (Homo sapiens (Human), UniProt P00533, L858R); experiment: as above; format: biochemical; details: 0.1 μM test compound, 10 μM ATP; remaining activity relative to DMSO control = 100%
Protocol: as §1, §2

EGFR (T790M, L858R) (h) = EGFR (T790M, L858R) (h) (Homo sapiens (Human), UniProt P00533, L858R/T790M); experiment: as above; format: biochemical; details: 0.1 μM test compound, 10 μM ATP; remaining activity relative to DMSO control = 100%
EGFR (T790M, L858R) (h), sequence (P00533 25-1210 T790M/L858R): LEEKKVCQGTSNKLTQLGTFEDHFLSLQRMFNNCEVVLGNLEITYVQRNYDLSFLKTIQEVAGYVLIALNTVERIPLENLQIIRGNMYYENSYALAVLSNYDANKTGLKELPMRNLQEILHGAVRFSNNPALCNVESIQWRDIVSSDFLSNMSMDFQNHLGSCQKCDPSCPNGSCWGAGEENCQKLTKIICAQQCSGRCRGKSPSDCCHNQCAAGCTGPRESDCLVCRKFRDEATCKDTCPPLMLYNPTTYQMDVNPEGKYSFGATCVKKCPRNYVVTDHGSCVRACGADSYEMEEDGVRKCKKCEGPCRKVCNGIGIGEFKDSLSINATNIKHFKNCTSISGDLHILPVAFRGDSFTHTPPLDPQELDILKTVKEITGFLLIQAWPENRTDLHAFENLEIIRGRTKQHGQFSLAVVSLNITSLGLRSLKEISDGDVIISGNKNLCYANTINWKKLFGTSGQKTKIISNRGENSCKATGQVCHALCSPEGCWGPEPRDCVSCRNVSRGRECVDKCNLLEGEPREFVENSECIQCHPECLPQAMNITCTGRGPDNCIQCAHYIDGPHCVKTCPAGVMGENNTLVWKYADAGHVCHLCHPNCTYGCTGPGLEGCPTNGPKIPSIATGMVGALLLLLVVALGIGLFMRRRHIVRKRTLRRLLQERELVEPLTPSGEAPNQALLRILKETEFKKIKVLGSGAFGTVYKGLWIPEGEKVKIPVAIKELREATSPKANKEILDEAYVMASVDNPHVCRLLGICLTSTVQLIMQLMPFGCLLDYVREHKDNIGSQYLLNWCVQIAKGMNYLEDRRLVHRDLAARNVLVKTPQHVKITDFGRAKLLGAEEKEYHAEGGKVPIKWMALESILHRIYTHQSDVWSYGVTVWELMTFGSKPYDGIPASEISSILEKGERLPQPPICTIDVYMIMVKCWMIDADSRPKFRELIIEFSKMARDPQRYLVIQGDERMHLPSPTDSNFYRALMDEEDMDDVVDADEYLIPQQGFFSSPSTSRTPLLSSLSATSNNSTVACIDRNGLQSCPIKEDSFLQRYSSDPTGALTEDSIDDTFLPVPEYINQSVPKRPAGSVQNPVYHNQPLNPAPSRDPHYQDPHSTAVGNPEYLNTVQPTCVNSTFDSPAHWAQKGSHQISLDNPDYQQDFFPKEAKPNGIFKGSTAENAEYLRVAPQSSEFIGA
Protocol: as §1, §2

[1] = system: HCC827 (EGFR Del) NSCLC cells; experiment: Cell proliferation assay (MTS cell viability); format: cell-based; details: Homo sapiens, 72 h; HCC827 cells, 3 days of exposure, MTS
Protocol: Effects of test compounds on in vitro proliferation were measured by MTS cell viability assay.
Prepare test compounds in each well with a final medium volume of 200 μl;
Incubate for 3 days of exposure;
Prepare reagents following the instructions in the Cell Proliferation Assay kit (Promega);
Change to serum-free medium with a final volume of 100 l/well. Prepare a set of wells with medium only for background subtraction;
Add 20 μl MTS solution containing PMS to each well (final concentration of MTS will be 0.33 mg/ml);
Incubate 1 to 4 hours at 37° C. in a humidified, 5% CO2 atmosphere.
Record absorbance at 490 nm using VICTOR™ X5 plate reader (PerkinElmer).
All experimental points were set up in three wells and all experiments were repeated at least three times.

[2] = system: H1975 (EGFR L858R/T790M) NSCLC cells; experiment: Cell proliferation assay (MTS cell viability); format: cell-based; details: Homo sapiens, NCI-H1975, 72 h; H1975 cells, 3 days of exposure, MTS
ALK (h) = ALK (h) (Homo sapiens (Human), UniProt Q9UM73); experiment: Kinase assay, single dose inhibition (Millipore, 33P-ATP filter binding); format: biochemical; details: 0.1 μM test compound, 10 μM ATP, remaining activity relative to DMSO control = 100%
ALK (h), sequence (Q9UM73 19-1620): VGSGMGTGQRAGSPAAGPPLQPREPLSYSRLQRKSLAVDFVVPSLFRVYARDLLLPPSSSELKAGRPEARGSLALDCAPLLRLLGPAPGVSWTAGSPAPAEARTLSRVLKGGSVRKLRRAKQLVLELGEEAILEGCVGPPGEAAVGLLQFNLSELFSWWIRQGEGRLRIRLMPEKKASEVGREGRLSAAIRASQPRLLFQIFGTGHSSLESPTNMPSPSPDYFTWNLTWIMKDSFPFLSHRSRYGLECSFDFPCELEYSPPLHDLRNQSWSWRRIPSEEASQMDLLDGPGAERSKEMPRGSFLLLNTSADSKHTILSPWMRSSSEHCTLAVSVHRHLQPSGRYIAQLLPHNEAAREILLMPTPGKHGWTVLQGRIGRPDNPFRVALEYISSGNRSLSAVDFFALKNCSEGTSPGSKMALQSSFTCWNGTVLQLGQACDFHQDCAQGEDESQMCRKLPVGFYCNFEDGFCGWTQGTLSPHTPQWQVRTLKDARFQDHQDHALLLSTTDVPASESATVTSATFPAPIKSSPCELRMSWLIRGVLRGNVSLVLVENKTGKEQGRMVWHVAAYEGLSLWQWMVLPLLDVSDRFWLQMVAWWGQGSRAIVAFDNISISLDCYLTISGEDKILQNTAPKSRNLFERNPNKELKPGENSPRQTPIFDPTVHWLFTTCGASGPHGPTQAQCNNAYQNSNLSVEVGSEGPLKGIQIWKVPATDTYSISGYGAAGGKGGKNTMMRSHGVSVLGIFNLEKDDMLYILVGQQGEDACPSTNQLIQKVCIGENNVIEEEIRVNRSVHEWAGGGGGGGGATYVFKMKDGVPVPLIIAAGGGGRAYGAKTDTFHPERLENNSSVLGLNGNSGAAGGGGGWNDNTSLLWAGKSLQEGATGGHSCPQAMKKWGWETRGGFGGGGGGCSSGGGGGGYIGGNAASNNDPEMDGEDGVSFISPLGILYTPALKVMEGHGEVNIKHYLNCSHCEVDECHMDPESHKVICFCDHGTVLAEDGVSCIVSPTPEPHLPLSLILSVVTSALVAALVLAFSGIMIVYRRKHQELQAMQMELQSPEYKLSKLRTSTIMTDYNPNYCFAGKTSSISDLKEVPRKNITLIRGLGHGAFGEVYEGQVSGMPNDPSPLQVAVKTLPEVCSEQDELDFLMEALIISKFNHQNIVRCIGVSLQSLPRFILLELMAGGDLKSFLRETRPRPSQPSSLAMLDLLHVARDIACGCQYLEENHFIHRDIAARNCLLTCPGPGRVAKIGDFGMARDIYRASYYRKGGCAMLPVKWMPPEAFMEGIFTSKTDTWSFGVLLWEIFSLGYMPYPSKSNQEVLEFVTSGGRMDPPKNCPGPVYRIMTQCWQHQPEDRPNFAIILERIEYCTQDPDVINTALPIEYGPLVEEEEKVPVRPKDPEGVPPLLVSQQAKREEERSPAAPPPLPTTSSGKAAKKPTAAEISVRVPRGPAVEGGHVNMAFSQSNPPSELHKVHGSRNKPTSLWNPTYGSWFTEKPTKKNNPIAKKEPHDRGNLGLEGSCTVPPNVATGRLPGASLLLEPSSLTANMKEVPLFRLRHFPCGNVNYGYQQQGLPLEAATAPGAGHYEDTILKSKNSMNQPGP
Protocol: as §1, §2

EGFR (h), sequence (P00533 25-1210): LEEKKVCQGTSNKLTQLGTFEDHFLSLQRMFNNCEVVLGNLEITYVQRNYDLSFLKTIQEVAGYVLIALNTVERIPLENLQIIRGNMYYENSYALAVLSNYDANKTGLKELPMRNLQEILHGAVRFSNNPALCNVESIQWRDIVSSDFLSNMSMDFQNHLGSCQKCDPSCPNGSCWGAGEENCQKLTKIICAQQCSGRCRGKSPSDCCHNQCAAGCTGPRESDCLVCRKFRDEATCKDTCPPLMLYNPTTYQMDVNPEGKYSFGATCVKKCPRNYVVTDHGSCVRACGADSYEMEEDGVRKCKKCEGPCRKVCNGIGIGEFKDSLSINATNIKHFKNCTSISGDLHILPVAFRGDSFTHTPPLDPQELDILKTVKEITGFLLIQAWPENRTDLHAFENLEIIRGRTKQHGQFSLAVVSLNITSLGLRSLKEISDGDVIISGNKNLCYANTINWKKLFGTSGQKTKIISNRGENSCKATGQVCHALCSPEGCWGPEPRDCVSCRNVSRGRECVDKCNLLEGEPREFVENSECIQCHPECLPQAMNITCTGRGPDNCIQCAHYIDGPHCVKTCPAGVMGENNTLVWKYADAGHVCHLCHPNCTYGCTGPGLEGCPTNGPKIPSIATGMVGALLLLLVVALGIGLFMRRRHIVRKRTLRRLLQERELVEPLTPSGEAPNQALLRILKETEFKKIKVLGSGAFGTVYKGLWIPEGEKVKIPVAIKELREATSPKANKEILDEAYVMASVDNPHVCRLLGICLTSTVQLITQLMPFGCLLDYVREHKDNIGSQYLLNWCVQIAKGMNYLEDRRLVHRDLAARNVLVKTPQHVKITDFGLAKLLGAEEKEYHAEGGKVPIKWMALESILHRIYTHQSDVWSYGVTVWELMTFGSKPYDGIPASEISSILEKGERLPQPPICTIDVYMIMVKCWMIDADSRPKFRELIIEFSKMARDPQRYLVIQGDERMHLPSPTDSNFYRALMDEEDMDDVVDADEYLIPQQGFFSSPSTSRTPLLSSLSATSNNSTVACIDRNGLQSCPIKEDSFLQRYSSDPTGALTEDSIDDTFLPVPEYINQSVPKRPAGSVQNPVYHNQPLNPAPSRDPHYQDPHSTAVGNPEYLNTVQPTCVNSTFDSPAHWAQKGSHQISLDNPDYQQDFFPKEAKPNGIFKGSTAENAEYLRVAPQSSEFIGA

Compound | Activity (control) % EGFR (h) (EGFR (h)) | Activity (control) % EGFR (T790M) (h) (EGFR (T790M) (h)) | Activity (control) % EGFR (L858R) (h) (EGFR (L858R) (h)) | Activity (control) % EGFR (T790M, L858R) (h) (EGFR (T790M, L858R) (h)) | IC50 [1] | IC50 [2] | remaining activity at 0.1 µM (ALK (h); 40 min) | Activity (control) % ALK (h) (ALK (h))
C=CC(=O)Nc1cccc(Nc2nc(Nc3ccc(N4CCN(C(C)=O)CC4)cc3OC)ncc2C(F)(F)F)c1 [CO-1686, reference compound] | 92% | 21% | 97% | 7% | – | – | – | –
CCOC(=O)C(=O)c1ccccc1Nc1nc(Nc2ccc(N3CCC(N(C)C)CC3)cc2OC)ncc1Cl [Example 1, ethyl 2-(2-(5-chloro-2-(4-(4-(dimethylamino)piperidin-1-yl)-2-methoxyphenylamino)pyrimidin-4-ylamino)phenyl)-2-oxoacetate] | – | – | – | – | > 3000 nM | > 3000 nM | – | –
COc1cc(N2CCC(N(C)C)CC2)ccc1Nc1ncc(Cl)c(Nc2ccccc2C(=O)C(=O)O)n1 [Example 2, 2-(2-(5-chloro-2-(4-(4-(dimethylamino)piperidin-1-yl)-2-methoxyphenylamino)pyrimidin-4-ylamino)phenyl)-2-oxoacetic acid] | – | – | – | – | > 3000 nM | > 3000 nM | – | –
COc1cc(N2CCN(C)CC2)ccc1Nc1ncc(C(F)(F)F)c(Nc2ccccc2C(=O)C(N)=O)n1 [Example 10, 2-(2-((2-((2-methoxy-4-(4-methylpiperazin-1-yl)phenyl)amino)-5-(trifluoromethyl)pyrimidin-4-yl)amino)phenyl)-2-oxoacetamide] | – | – | – | – | > 3000 nM | > 3000 nM | – | –
COc1cc(N2CCC(N(C)C)CC2)ccc1Nc1ncc(C(F)(F)F)c(Nc2ccccc2C(=O)C(=O)O)n1 [Example 15, 2-(2-((2-((4-(4-(dimethylamino)piperidin-1-yl)-2-methoxyphenyl)amino)-5-(trifluoromethyl)pyrimidin-4-yl)amino)phenyl)-2-oxoacetic acid] | – | – | – | – | > 3000 nM | > 3000 nM | – | –
COc1cc(N2CCC(N(C)C)CC2)ccc1Nc1ncc(Cl)c(Nc2ccccc2C(=O)C(=O)N2CCOCC2)n1 [Example 18, 1-(2-((5-chloro-2-((4-(4-(dimethylamino)piperidin-1-yl)-2-methoxyphenyl)amino)pyrimidin-4-yl)amino)phenyl)-2-morpholinoethane-1,2-dione] | – | – | – | – | > 3000 nM | 2860 nM | – | –
COc1cc(N2CCC(N(C)C)CC2)ccc1Nc1ncc(Cl)c(Nc2ccccc2C(=O)C(=O)NC2CNC2)n1 [Example 24, N-(azetidin-3-yl)-2-(2-((5-chloro-2-((4-(4-(dimethylamino)piperidin-1-yl)-2-methoxyphenyl)amino)pyrimidin-4-yl)amino)phenyl)-2-oxoacetamide] | – | – | – | – | > 3000 nM | > 3000 nM | – | –
COc1cc(N2CCC(N(C)C)CC2)ccc1Nc1ncc(Cl)c(Nc2ccccc2C(=O)C(=O)NC2CC2)n1 [Example 25, 2-(2-((5-chloro-2-((4-(4-(dimethylamino)piperidin-1-yl)-2-methoxyphenyl)amino)pyrimidin-4-yl)amino)phenyl)-N-cyclopropyl-2-oxoacetamide] | – | – | – | – | > 3000 nM | > 3000 nM | – | –
C=C(CN1CCOCC1)C(=O)Nc1ccc(OC)c(Nc2ncc(Cl)c(Nc3ccccc3C(=O)C(=O)N(C)C)n2)c1 [Example 41, N-(3-(5-chloro-4-(2-(2-(dimethylamino)-2-oxoacetyl)phenylamino)pyrimidin-2-ylamino)-4-methoxyphenyl)-2-(morpholinomethyl)acrylamide] | 76% | 2% | 39% | 3% | – | – | 21% | –
COc1cc(N2CCOCC2)ccc1Nc1ncc(Cl)c(Nc2ccccc2C(=O)C(=O)N(C)C)n1 [Example 48, 2-(2-(5-chloro-2-(2-methoxy-4-morpholinophenylamino)pyrimidin-4-ylamino)phenyl)-N,N-dimethyl-2-oxoacetamide] | – | – | – | – | 1940 nM | 1950 nM | – | –
COc1cc(N2CCN(C)CC2)ccc1Nc1ncc(Cl)c(Nc2ccccc2C(=O)C(=O)NC2CC2)n1 [Example 49, 2-(2-(5-chloro-2-(2-methoxy-4-(4-methylpiperazin-1-yl)phenylamino)pyrimidin-4-ylamino)phenyl)-N-cyclopropyl-2-oxoacetamide] | – | – | – | – | > 3000 nM | > 3000 nM | – | –
CCC(=O)N1CCN(c2ccc(Nc3ncc(Cl)c(Nc4ccccc4C(=O)C(=O)NC)n3)c(OC)c2)CC1 [Example 54, 2-(2-(5-chloro-2-(2-methoxy-4-(4-propionylpiperazin-1-yl)phenylamino)pyrimidin-4-ylamino)phenyl)-N-methyl-2-oxoacetamide] | – | – | – | – | > 3000 nM | > 3000 nM | – | –
C=CC(=O)N1CC(NC(=O)C(=O)c2ccccc2Nc2nc(Nc3ccc(N4CCN(C)CC4)cc3OC)ncc2Cl)C1 [Example 55, N-(1-acryloylazetidin-3-yl)-2-(2-(5-chloro-2-(2-methoxy-4-(4-methylpiperazin-1-yl)phenylamino)pyrimidin-4-ylamino)phenyl)-2-oxoacetamide] | – | – | – | – | > 3000 nM | > 3000 nM | – | –
C=CC(=O)N1CCC(NC(=O)C(=O)c2ccccc2Nc2nc(Nc3ccc(N4CCN(C)CC4)cc3OC)ncc2Cl)CC1 [Example 56, N-(1-acryloylpiperidin-4-yl)-2-(2-(5-chloro-2-(2-methoxy-4-(4-methylpiperazin-1-yl)phenylamino)pyrimidin-4-ylamino)phenyl)-2-oxoacetamide] | – | – | – | – | > 3000 nM | > 3000 nM | – | –
COc1ccc(NC(=O)C=C(C)C)cc1Nc1ncc(Cl)c(Nc2ccccc2C(=O)C(=O)N(C)C)n1 [Example 71, N-(3-(5-chloro-4-(2-(2-(dimethylamino)-2-oxoacetyl)phenylamino)pyrimidin-2-ylamino)-4-methoxyphenyl)-3-methylbut-2-enamide] | – | – | – | – | – | 990 nM | – | –
COc1ccc(NC(=O)/C=C/CN2CCCCC2)cc1Nc1ncc(Cl)c(Nc2ccccc2C(=O)C(=O)N(C)C)n1 [Example 72, (E)-N-(3-(5-chloro-4-(2-(2-(dimethylamino)-2-oxoacetyl)phenylamino)pyrimidin-2-ylamino)-4-methoxyphenyl)-4-(piperidin-1-yl)but-2-enamide] | 102% | 54% | 28% | 9% | – | – | – | 14%
C=C(CN1CCCCC1)C(=O)Nc1ccc(OC)c(Nc2ncc(Cl)c(Nc3ccccc3C(=O)C(=O)N(C)C)n2)c1 [Example 73, N-(3-(5-chloro-4-(2-(2-(dimethylamino)-2-oxoactyl)phenylamino)pyrimidin-2-ylamino)-4-methoxyphenyl)-2-(piperidin-1-ylmethyl)acrylamide] | 67% | 3% | 37% | 3% | – | – | – | 17%
C=C(CN(C)C)C(=O)Nc1ccc(OC)c(Nc2ncc(Cl)c(Nc3ccccc3C(=O)C(=O)N(C)C)n2)c1 [Example 78, N-(3-(5-chloro-4-(2-(2-(dimethylamino)-2-oxoactyl)phenylamino)pyrimidin-2-ylamino)-4-methoxyphenyl)-2-((dimethylamino)methyl)acrylamide] | 68% | 2% | 37% | 3% | – | – | – | 36%
COc1ccc(NC(=O)/C=C/CN2CCOCC2)cc1Nc1ncc(Cl)c(Nc2ccccc2C(=O)C(=O)N(C)C)n1 [Example 79, (E)-N-(3-(5-chloro-4-(2-(2-(dimethylamino)-2-oxoacetyl)phenylamino)pyrimidin-2-ylamino)-4-methoxyphenyl)-4-morpholinobut-2-enamide] | 92% | 16% | 25% | 2% | – | – | – | 7%
COc1ccc(NC(=O)/C=C/CN(C)C)cc1Nc1ncc(Cl)c(Nc2ccccc2C(=O)C(=O)N(C)C)n1 [Example 80, (E)-N-(3-(5-chloro-4-(2-(2-(dimethylamino)-2-oxoacetyl)phenylamino)pyrimidin-2-ylamino)-4-methoxyphenyl)-4-(dimethylamino)but-2-enamide] | 101% | 42% | 43% | 7% | – | – | – | 10%
C=CC(=O)N1CCOc2ccc(Nc3ncc(Cl)c(Nc4ccccc4C(=O)C(=O)N(C)C)n3)cc21 [Example 87, 2-(2-(2-(4-acryloyl-3,4-dihydro-2H-benzo[b][1,4]oxazin-6-ylamino)-5-chloropyrimidin-4-ylamino)phenyl)-N,N-dimethyl-2-oxoacetamide] | – | – | – | – | – | – | – | 5%
C=CC(=O)Nc1ccc(OC)c(Nc2ncc(Cl)c(Nc3ccccc3C(=O)C(=O)N3CCN(C)CC3)n2)c1 [Example 89, N-(3-(5-chloro-4-(2-(2-(4-methylpiperazin-1-yl)-2-oxoacetyl)phenylamino)pyrimidin-2-ylamino)-4-methoxyphenyl)acrylamide] | 67% | 5% | 10% | 1% | – | – | – | 8%
N-(5-(5-chloro-4-(2-(2-(dimethylamino)-2-oxoactyl)phenylamino)pyrimidin-2-ylamino)-2-(2-(dimethylamino)ethoxy)phenyl)acrylamide [Example 115] | – | – | – | – | – | – | – | 6%
